biological target: T1, hROMK (hKir1.1) (Homo sapiens, UniProt P48048); test: Thallium Flux Assay (ROMK channel functional thallium flux, FLIPR-Tetra); type: cell-based; conditions: HEK293 cells stably expressing hROMK (hKir1.1); 30 min compound incubation
T1 construct: expressed in transfected cells
T1 sequence (P48048 1-391): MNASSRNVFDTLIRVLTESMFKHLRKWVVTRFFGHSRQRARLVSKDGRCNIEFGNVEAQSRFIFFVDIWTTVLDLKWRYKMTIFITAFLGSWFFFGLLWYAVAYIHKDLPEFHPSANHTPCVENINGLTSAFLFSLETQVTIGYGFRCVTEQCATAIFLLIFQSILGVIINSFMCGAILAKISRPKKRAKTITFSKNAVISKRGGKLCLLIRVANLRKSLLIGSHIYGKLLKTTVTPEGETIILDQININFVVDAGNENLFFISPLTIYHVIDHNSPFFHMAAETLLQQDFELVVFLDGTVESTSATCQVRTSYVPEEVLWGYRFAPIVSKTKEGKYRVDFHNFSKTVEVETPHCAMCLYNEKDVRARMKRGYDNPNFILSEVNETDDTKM
In short: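 HEK293 cells stably expressing hKir1.1, loaded with FluxOR dye for 90 min, then preincubated with compound for 30 min at ambient temperature with 0.3 mM ouabain and probenecid. Stimulated with 3 mM thallium/0.3 mM potassium (final); fluorescence read ~10 min. Normalized to 3 μM reference ROMK inhibitor; IC50 from inhibition of flux.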

Structure (SMILES) | IC50
CC1=C(N2CCC3(CCN(C[C@H](O)c4cncc(-n5cnnn5)n4)CC3)C2=O)COC1=O [Example 75, 8-{(2S)-2-hydroxy-2-[6-(1H-tetrazol-1-yl)pyrazin-2-yl]ethyl}-2-(4-methyl-5-oxo-2,5-dihydrofuran-3-yl)-1-oxo-2-aza-8-azoniaspiro[4.5]decane] | 440 nM
CC1=C(N2CC(O)C3(CC4CCC(C3)N4C[C@@H](O)c3ccc(-n4cnnn4)nc3)C2=O)COC1=O (single isomer, unassigned) [Example 107] | 110 nM
COC1CN(C[C@@H](O)c2ccc(-n3cnnn3)nc2)CCC12CCN(C1=C(C)C(=O)OC1)C2=O (single isomer, unassigned) [Example 171] | 60 nM
CO[C@@H](CN1C2CCC1CC1(CCN(C3=C(C)C(=O)OC3)C1=O)C2)c1ccc(-n2cnnn2)nc1 (stereo partly drawn) [Example 288, (1R,3R,5S)-S-((R)-2-(6-(1H-tetrazol-1-yl)pyridin-3-yl)-2-methoxyethyl)-1′-(4-methyl-5-oxo-2,5-dihydrofuran-3-yl)-8-azaspiro[bicyclo[3.2.1]octane-3,3′-pyrrolidin]-2′-one] | 30 nM
COC1CN(C2=C(C)C(=O)OC2)C(=O)C12CC1CCC(C2)N1C[C@H](O)c1cnc(-n2cnnn2)cn1 (single isomer, unassigned) [Example 160] | 110 nM
CC1=C(N2CCC3(CCN(C(C)(C)C(O)c4ccc(-n5cnnn5)nc4)CC3)C2=O)COC1=O (single isomer, unassigned) [Example 297] | 10 nM
CC1=C(N2CCC3(CCN(C[C@@H](O)c4nnc(-n5cnnn5)c(C)c4C)CC3)C2=O)COC1=O [Example 70, 8-{(2R)-2-[4,5-dimethyl-6-(1H-tetrazol-1-yl)pyridazin-3-yl]-2-hydroxyethyl}-2-(4-methyl-5-oxo-2,5-dihydrofuran-3-yl)-1-oxo-2-aza-8-azoniaspiro[4.5]decane] | 30 nM
CC1=C(N2CCC3(CCN(CCc4ccc(-n5cnnn5)nn4)CC3F)C2=O)COC1=O (single isomer, unassigned) [Example 265, 6-fluoro-2-(4-methyl-5-oxo-2,5-dihydrofuran-3-yl)-8-{2-[6-(1H-tetrazol-1-yl)pyridazin-3-yl]ethyl}-2,8-diazaspiro[4.5]decan-1-one] | 10 nM
CC1=C(N2CC(O)C3(CC4CCC(C3)N4C[C@H](O)c3ccc(-n4cnnn4)nc3)C2=O)COC1=O (single isomer, unassigned) [Example 104] | 120 nM
CC1=C(N2CC(O)C3(CC4CCC(C3)N4C[C@@H](O)c3ccc(-n4cnnn4)nc3)C2=O)COC1=O (single isomer, unassigned) [Example 105] | 130 nM
CC1=C(N2CCC3(CCN(C[C@H](O)c4cnc(-n5cnnn5)cc4C(F)F)CC3)C2=O)COC1=O (stereo in doubt) [Example 147, 8-{2-[4-(difluoromethyl)-6-(1H-tetrazol-1-yl)pyridin-3-yl]-2-hydroxyethyl}-2-(4-methyl-5-oxo-2,5-dihydrofuran-3-yl)-2,8-diazaspiro[4.5]decan-1-one] | 40 nM
CC1OC(=O)C=C1N1C(=O)C2(CCN(C[C@H](O)c3ccc(-n4cnnn4)nc3)CC2)C[C@@H]1C (single isomer, unassigned) [Example 229] | 280 nM
COC1CN(C[C@@H](O)c2cnc(-n3cnnn3)cn2)CCC12CCN(C1=C(C)C(=O)OC1)C2=O (single isomer, unassigned) [Example 179] | 330 nM
CC1=C(N2CCC3(CCN(C[C@@H](O)c4ccc(-n5cnnn5)c(C#N)c4)CC3)C2=O)COC1=O [Example 96, 8-{(2S)-2-[3-cyano-4-(1H-tetrazol-1-yl)phenyl]-2-hydroxyethyl}-2-(4-methyl-5-oxo-2,5-dihydrofuran-3-yl)-1-oxo-2-aza-8-azoniaspiro[4.5]decane] | 70 nM
Cc1cc(-n2cnnn2)ccc1[C@@H](O)CN1CCC2(CC1)CCN(C1=CC(=O)OC1)C2=O [Example 11, 8-{(2R)-2-hydroxy-2-[2-methyl-4-(1H-tetrazol-1-yl)phenyl]ethyl}-1-oxo-2-(5-oxo-2,5-dihydrofuran-3-yl)-2-aza-8-azoniaspiro[4.5]decane] | 20 nM

The remaining compounds from weak to strong by IC50, led by results:

IC50 | Structure (SMILES)
910 nM | CC1CC2(CCN(C(C)(C)C(O)c3cnc(-n4cnnn4)cn3)CC2)C(=O)N1C1=CC(=O)OC1 (single isomer, unassigned) [Example 304, 8-(1-(5-(1H-tetrazol-1-yl)pyrazin-2-yl)-1-hydroxy-2-methylpropan-2-yl)-3-methyl-2-(5-oxo-2,5-dihydrofuran-3-yl)-2,8-diazaspiro[4.5]decan-1-one]
300 nM | O=C1C=C(N2C(=O)C3(CCN(C[C@H](O)c4cnc(-n5cnnn5)cn4)CC3)CC2CF)CO1 (single isomer, unassigned) [Example 204]
100 nM | CC1CC2(CCN(C(C)(C)C(O)c3cnc(-n4cnnn4)cn3)CC2)C(=O)N1C1=CC(=O)OC1 (single isomer, unassigned) [Example 302, 8-(1-(5-(1H-tetrazol-1-yl)pyrazin-2-yl)-1-hydroxy-2-methylpropan-2-yl)-3-methyl-2-(5-oxo-2,5-dihydrofuran-3-yl)-2,8-diazaspiro[4.5]decan-1-one]
70 nM | CC1=C(N2CCC3(CCN(C[C@@H](O)c4ccc(-n5cnnn5)nn4)CC3F)C2=O)COC1=O (single isomer, unassigned) [Example 184]
50 nM | CC1=C(N2C=CC3(CCN(CCc4cnc(-n5cnnn5)cn4)CC3)C2=O)COC1=O [Example 251, 2-(4-methyl-5-oxo-2,5-dihydrofuran-3-yl)-1-oxo-8-{2-[5-(1H-tetrazol-1-yl)pyrazin-2-yl]ethyl}-2-aza-8-azoniaspiro[4.5]dec-3-ene]
40 nM | Cc1nc(-n2cnnn2)ccc1[C@@H](O)CN1CCC2(CC1)CCN(C1=C(C3CC3)C(=O)OC1)C2=O [Example 60, 2-(4-cyclopropyl-5-oxo-2,5-dihydrofuran-3-yl)-8-{(2R)-2-hydroxy-2-[2-methyl-6-(1H-tetrazol-1-yl)pyridin-3-yl]ethyl}-1-oxo-2-aza-8-azoniaspiro[4.5]decane]
40 nM | CC1=C(N2CCC3(CCN(C[C@H](O)c4nnc(-n5cnnn5)c(C)c4C)CC3)C2=O)COC1=O [Example 69, 8-{(2S)-2-[4,5-dimethyl-6-(1H-tetrazol-1-yl)pyridazin-3-yl]-2-hydroxyethyl}-2-(4-methyl-5-oxo-2,5-dihydrofuran-3-yl)-1-oxo-2-aza-8-azoniaspiro[4.5]decane]
30 nM | CC1=C(N2CCC3(CCN(C[C@H](O)c4ncc(-n5cnnn5)cc4C)CC3)C2=O)COC1=O [Example 28, 8-{(2S)-2-hydroxy-2-[3-methyl-5-(1H-tetrazol-1-yl)pyridin-2-yl]ethyl}-2-(4-methyl-5-oxo-2,5-dihydrofuran-3-yl)-1-oxo-2-aza-8-azoniaspiro[4.5]decane]
20 nM | COc1nc(-n2cnnn2)ccc1[C@@H](O)CN1CCC2(CC1)CCN(C1=C(C)C(=O)OC1)C2=O [Example 149, 8-{(2R)-2-hydroxy-2-[2-methoxy-6-(1H-tetrazol-1-yl)pyridin-3-yl]ethyl}-2-(4-methyl-5-oxo-2,5-dihydrofuran-3-yl)-2,8-diazaspiro[4.5]decan-1-one]
10 nM | CCC1CC2(CCN(C[C@H](O)c3ccc(-n4cnnn4)nc3)CC2)C(=O)N1C1=CC(=O)OC1 (mixture of isomers) [Example 219, 3-ethyl-8-{(2R)-2-hydroxy-2-[6-(1H-tetrazol-1-yl)pyridin-3-yl]ethyl}-2-(5-oxo-2,5-dihydrofuran-3-yl)-2,8-diazaspiro[4.5]decan-1-one]

— patent US9765074B2, “Inhibitors of the renal outer medullary potassium channel” (Merck Sharp & Dohme Corp., priority 2013, dated 2017)
